Test results from US9676714B2, “Sulfonylindole derivatives and method for preparing the same” (Daewoong Pharmaceutical Co., Ltd., priority 2013, dated 2017).
Counter-ions that a name gives are not always drawn.

target: T1, proton pump (H+/K+-ATPase) (Sus scrofa, UniProt P19156); test: Measurement of inhibitory effects on proton pump (H+/K+-ATPase) activities; assay type: biochemical; conditions: hog gastric vesicles, K+-specific H+/K+-ATPase activity, Tris-HCl buffer pH 7.4, 37° C. for 40 minutes, malachite green Pi readout
T1 construct: Gastric vesicles were prepared from hog stomach via centrifugal separation; from tissue; host or cells: hog stomach (gastric vesicles, method of Rabon et al. 1988)
T1 sequence (P19156 whole entry): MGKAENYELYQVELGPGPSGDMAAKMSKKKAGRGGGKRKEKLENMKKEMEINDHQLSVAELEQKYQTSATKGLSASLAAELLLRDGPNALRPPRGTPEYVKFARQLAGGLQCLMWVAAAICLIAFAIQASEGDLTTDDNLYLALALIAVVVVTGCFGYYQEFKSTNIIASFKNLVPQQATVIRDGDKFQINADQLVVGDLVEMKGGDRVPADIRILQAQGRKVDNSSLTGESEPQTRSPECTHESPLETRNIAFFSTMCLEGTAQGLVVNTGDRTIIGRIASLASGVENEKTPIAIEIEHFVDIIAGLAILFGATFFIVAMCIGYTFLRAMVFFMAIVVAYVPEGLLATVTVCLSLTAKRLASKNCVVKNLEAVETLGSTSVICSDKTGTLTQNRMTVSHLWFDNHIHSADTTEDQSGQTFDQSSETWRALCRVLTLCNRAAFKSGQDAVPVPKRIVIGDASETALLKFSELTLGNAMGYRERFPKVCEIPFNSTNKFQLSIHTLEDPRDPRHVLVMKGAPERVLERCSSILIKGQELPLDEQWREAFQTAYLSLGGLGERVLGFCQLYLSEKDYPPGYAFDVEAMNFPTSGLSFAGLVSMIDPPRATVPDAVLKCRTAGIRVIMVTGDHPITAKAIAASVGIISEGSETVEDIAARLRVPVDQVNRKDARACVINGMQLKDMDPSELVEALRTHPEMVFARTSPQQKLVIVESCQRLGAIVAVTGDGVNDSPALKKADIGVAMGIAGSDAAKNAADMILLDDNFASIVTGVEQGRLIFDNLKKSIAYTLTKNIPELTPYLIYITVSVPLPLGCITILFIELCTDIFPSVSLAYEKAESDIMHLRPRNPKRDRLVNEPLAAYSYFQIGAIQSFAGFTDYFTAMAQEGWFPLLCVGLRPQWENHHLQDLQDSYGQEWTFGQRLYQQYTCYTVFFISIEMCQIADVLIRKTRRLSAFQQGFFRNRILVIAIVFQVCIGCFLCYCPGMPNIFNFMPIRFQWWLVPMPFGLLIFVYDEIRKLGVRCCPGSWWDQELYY
T1 sequence (P18434 whole entry partner): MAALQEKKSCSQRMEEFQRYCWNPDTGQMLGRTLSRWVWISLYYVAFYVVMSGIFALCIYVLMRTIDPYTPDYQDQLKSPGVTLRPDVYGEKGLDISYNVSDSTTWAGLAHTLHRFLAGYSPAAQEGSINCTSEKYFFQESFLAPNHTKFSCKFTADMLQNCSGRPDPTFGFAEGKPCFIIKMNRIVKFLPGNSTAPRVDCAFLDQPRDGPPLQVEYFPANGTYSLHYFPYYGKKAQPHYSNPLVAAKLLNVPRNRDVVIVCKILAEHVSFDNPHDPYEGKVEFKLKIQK
Method: 1) Preparation of Gastric Vesicles
Gastric vesicles were prepared from hog stomach via centrifugal separation (Edd C. Rabon et al., Preparation of Gastric H^+,K^+-ATPase, Methods in enzymology, vol. 157 Academic Press Inc., (1988), pp. 649-654). The protein contents of the thus prepared gastric vesicles were quantitated by Bicinchoninic Acid (BCA) kit.
2) Measurement of Inhibitory Effects on Proton Pump (H^+/K^+-ATPase) Activities
The inhibitory effects of the compounds of the present invention against proton pump activities were measured using a 96-well plate. In this assay, the K^+-specific H^+/K^+-ATPase activities were calculated based on the difference between the H^+/K^+-ATPase activity in the presence of K^+ and that in the absence of K. In the 96-well plate, 0.5% dimethyl sulfoxide (DMSO) in buffer was added to the negative and positive control groups, and the diluted compounds of the present invention were added to the test groups. All assays were performed in a reaction volume of 100 μl at room temperature. The reaction buffer solution (60 mmol/l Tris-HCl buffer, pH 7.4) including the hog gastric vesicles was added with DMSO and the compounds at various concentrations, and then further added with 10 μl of 10 mmol/1 adenosine triphosphate Tris buffer solution (60 mmol/l Tris-HCl buffer, pH 7.4) to initiate an enzyme reaction. […] The amount of monophosphate (Pi) in the reaction was measured at 570 nm using a micro plate reader (FLUOstar Omega, BMG LABTECH). The inhibition rates (%) were determined from the activity values of control groups and those of test compounds at various concentrations, and the […] of the test compounds were calculated based on the respective inhibition value (%) using the Logistic 4-parameter function of Sigmaplot 8.0 program.

Point of comparison: `CNCc1cn(S(=O)(=O)c2cccnc2)c2cc(Nc3ccc(OC)cc3F)ccc12` [Example 49, N-(2-fluoro-4-methoxyphenyl)-3-((methylamino)methyl)-1-(pyridin-3-ylsulfonyl)-1H-indol-6-amine hydrochloride], IC50 320 nM. Against it:
- CNCc1cn(S(=O)(=O)c2cccnc2)c2cc(Nc3ccc(C(F)(F)F)cc3C)ccc12 [Example 32, N-(2-methyl-4-(trifluoromethyl)phenyl)-3-((methylamino)methyl)-1-(pyridin-3-ylsulfonyl)-1H-indol-6-amine hydrochloride] — 2.5-fold higher, 810 nM
- CNCc1cn(S(=O)(=O)c2cccnc2)c2cc(Nc3ccc(C(F)(F)F)cc3F)ccc12 [Example 33, N-(2-fluoro-4-(trifluoromethyl)phenyl)-3-((methylamino)methyl)-1-(pyridin-3-ylsulfonyl)-1H-indol-6-amine hydrochloride] — 4.2-fold higher, 1360 nM
- CNCc1cn(S(=O)(=O)c2cccnc2)c2cc(Nc3ccc(C(F)(F)F)cc3C(F)(F)F)ccc12 [Example 35, N-(2,4-Bis(trifluoromethyl)phenyl)-3-((methylamino)methyl)-1-(pyridin-3-ylsulfonyl)-1H-indol-6-amine hydrochloride] — 5.1-fold higher, 1630 nM
- CNCc1cn(S(=O)(=O)c2cccnc2)c2cc(Nc3ccc(C#N)cc3C)ccc12 [Example 36, 3-methyl-4-((3-((methylamino)methyl)-1-(pyridin-3-ylsulfonyl)-1H-indol-6-yl)amino)benzonitrile hydrochloride] — within 1.5-fold, 340 nM
- CCc1cc(C#N)ccc1Nc1ccc2c(CNC)cn(S(=O)(=O)c3cccnc3)c2c1 [Example 37, 3-ethyl-4-((3-((methylamino)methyl)-1-(pyridin-3-ylsulfonyl)-1H-indol-6-yl)amino)benzonitrile hydrochloride] — 1.6-fold higher, 500 nM
- CNCc1cn(S(=O)(=O)c2cccnc2)c2cc(Nc3ccc(C#N)cc3F)ccc12 [Example 38, 3-fluoro-4-((3-((methylamino)methyl)-1-(pyridin-3-ylsulfonyl)-1H-indol-6-yl)amino)benzonitrile hydrochloride] — 6.8-fold higher, 2190 nM
- CNCc1cn(S(=O)(=O)c2cccnc2)c2cc(Nc3ccc(C#N)cc3Cl)ccc12 [Example 39, 3-chloro-4-((3-((methylamino)methyl)-1-(pyridin-3-ylsulfonyl)-1H-indol-6-yl)amino)benzonitrile hydrochloride] — 2.5-fold lower, 130 nM
- CNCc1cn(S(=O)(=O)c2cccnc2)c2cc(Nc3ccc(C#N)cc3C(F)(F)F)ccc12 [Example 40, 4-((3-((methylamino)methyl)-1-(pyridin-3-ylsulfonyl)-1H-indol-6-yl)amino)-3-(trifluoromethyl)benzonitrile hydrochloride] — 5.7-fold higher, 1830 nM
- CNCc1cn(S(=O)(=O)c2cccnc2)c2cc(Nc3ccc([N+](=O)[O-])cc3Cl)ccc12 [Example 41, N-(2-chloro-4-nitrophenyl)-3-((methylamino)methyl)-1-(pyridin-3-ylsulfonyl)-1H-indol-6-amine hydrochloride] — 1.5-fold higher, 480 nM
- CNCc1cn(S(=O)(=O)c2cccnc2)c2cc(Nc3ccc([N+](=O)[O-])cc3C)ccc12 [Example 42, N-(2-methyl-4-nitrophenyl)-3-((methylamino)methyl)-1-(pyridin-3-ylsulfonyl)-1H-indol-6-amine hydrochloride] — within 1.5-fold, 340 nM
- CCc1cc(Br)ccc1Nc1ccc2c(CNC)cn(S(=O)(=O)c3cccnc3)c2c1 [Example 43, N-(4-bromo-2-ethylphenyl)-3-((methylamino)methyl)-1-(pyridin-3-ylsulfonyl)-1H-indol-6-amine hydrochloride] — 9.4-fold higher, 3020 nM
- CNCc1cn(S(=O)(=O)c2cccnc2)c2cc(Nc3ccc(Br)cc3Cl)ccc12 [Example 44, N-(4-bromo-2-chlorophenyl)-3-((methylamino)methyl)-1-(pyridin-3-ylsulfonyl)-1H-indol-6-amine hydrochloride] — within 1.5-fold, 270 nM
- CNCc1cn(S(=O)(=O)c2cccnc2)c2cc(Nc3ccc(Br)cc3C(F)(F)F)ccc12 [Example 45, N-(4-bromo-2-(trifluoromethyl)phenyl)-3-((methylamino)methyl)-1-(pyridin-3-ylsulfonyl)-1H-indol-6-amine hydrochloride] — 3.8-fold higher, 1200 nM
- CNCc1cn(S(=O)(=O)c2cccnc2)c2cc(Nc3ccc(Br)cc3OC(F)(F)F)ccc12 [Example 46, N-(4-bromo-2-(trifluoromethoxy)phenyl)-3-((methylamino)methyl)-1-(pyridin-3-ylsulfonyl)-1H-indol-6-amine hydrochloride] — 7.3-fold higher, 2350 nM
- CNCc1cn(S(=O)(=O)c2cccnc2)c2cc(Nc3ccc(O)cc3C)ccc12 [Example 47, 3-methyl-4-((3-((methylamino)methyl)-1-(pyridin-3-ylsulfonyl)-1H-indol-6-yl)amino)phenol hydrochloride] — 2.6-fold higher, 840 nM
- CNCc1cn(S(=O)(=O)c2cccnc2)c2cc(Nc3ccc(OC)cc3C)ccc12 [Example 48, N-(4-methoxy-2-methylphenyl)-3-((methylamino)methyl)-1-(pyridin-3-ylsulfonyl)-1H-indol-6-amine hydrochloride] — within 1.5-fold, 260 nM
- CNCc1cn(S(=O)(=O)c2cccnc2)c2cc(Nc3ccc(OC)cc3C(F)(F)F)ccc12 [Example 51, N-(4-methoxy-2-(trifluoromethyl)phenyl)-3-((methylamino)methyl)-1-(pyridin-3-ylsulfonyl)-1H-indol-6-amine hydrochloride] — 3.8-fold higher, 1200 nM
- CNCc1cn(S(=O)(=O)c2cccnc2)c2cc(Nc3ccc(OC(F)(F)F)cc3F)ccc12 [Example 54, N-(2-fluoro-4-(trifluoromethoxy)phenyl)-3-((methylamino)methyl)-1-(pyridin-3-ylsulfonyl)-1H-indol-6-amine hydrochloride] — 3.3-fold higher, 1050 nM
- CNCc1cn(S(=O)(=O)c2cccnc2)c2cc(Nc3ccc(C(=O)OC)cc3Cl)ccc12 [Example 57, methyl 3-chloro-4-((3-((methylamino)methyl)-1-(pyridin-3-ylsulfonyl)-1H-indol-6-yl)amino)benzoate hydrochloride] — within 1.5-fold, 430 nM
- CNCc1cn(S(=O)(=O)c2cccnc2)c2cc(Nc3cc(F)ccc3F)ccc12 [Example 58, N-(2,5-difluorophenyl)-3-((methylamino)methyl)-1-(pyridin-3-ylsulfonyl)-1H-indol-6-amine hydrochloride] — within 1.5-fold, 410 nM
- CNCc1cn(S(=O)(=O)c2cccnc2)c2cc(Nc3cc(C)ccc3F)ccc12 [Example 59, N-(2-fluoro-5-methylphenyl)-3-((methylamino)methyl)-1-(pyridin-3-ylsulfonyl)-1H-indol-6-amine hydrochloride] — within 1.5-fold, 350 nM
- CNCc1cn(S(=O)(=O)c2cccnc2)c2cc(Nc3c(F)cccc3F)ccc12 [Example 60, N-(2,6-difluorophenyl)-3-((methylamino)methyl)-1-(pyridin-3-ylsulfonyl)-1H-indol-6-amine hydrochloride] — 7.7-fold higher, 2460 nM
- CNCc1cn(S(=O)(=O)c2cccnc2)c2cc(Nc3c(C)cccc3Cl)ccc12 [Example 61, N-(2-chloro-6-methylphenyl)-3-((methylamino)methyl)-1-(pyridin-3-ylsulfonyl)-1H-indol-6-amine hydrochloride] — within 1.5-fold, 290 nM
- CNCc1cn(S(=O)(=O)c2cccnc2)c2cc(Nc3ccc(F)c(F)c3)ccc12 [Example 62, N-(3,4-difluorophenyl)-3-((methylamino)methyl)-1-(pyridin-3-ylsulfonyl)-1H-indol-6-amine hydrochloride] — 2.9-fold higher, 930 nM
- CNCc1cn(S(=O)(=O)c2cccnc2)c2cc(Nc3cc(OC)cc(OC)c3)ccc12 [Example 63, N-(3,5-dimethoxyphenyl)-3-((methylamino)methyl)-1-(pyridin-3-ylsulfonyl)-1H-indol-6-amine hydrochloride] — 4.1-fold higher, 1310 nM
- CNCc1cn(S(=O)(=O)c2cccnc2)c2cc(Nc3cc(Cl)cc(Cl)c3)ccc12 [Example 64, N-(3,5-dichlorophenyl)-3-((methylamino)methyl)-1-(pyridin-3-ylsulfonyl)-1H-indol-6-amine hydrochloride] — 5.8-fold higher, 1840 nM
- CNCc1cn(S(=O)(=O)c2cccnc2)c2cc(Nc3ccc(F)c(C)c3C)ccc12 [Example 66, N-(4-fluoro-2,3-dimethylphenyl)-3-((methylamino)methyl)-1-(pyridin-3-ylsulfonyl)-1H-indol-6-amine hydrochloride] — within 1.5-fold, 270 nM
- CNCc1cn(S(=O)(=O)c2cccnc2)c2cc(Nc3ccc(F)c(F)c3F)ccc12 [Example 67, 3-((methylamino)methyl)-1-(pyridin-3-ylsulfonyl)-N-(2,3,4-trifluorophenyl)-1H-indol-6-amine hydrochloride] — within 1.5-fold, 380 nM
- CNCc1cn(S(=O)(=O)c2cccnc2)c2cc(Nc3ccc(F)c(OC)c3F)ccc12 [Example 68, N-(2,4-difluoro-3-methoxyphenyl)-3-((methylamino)methyl)-1-(pyridin-3-ylsulfonyl)-1H-indol-6-amine hydrochloride] — 7.5-fold higher, 2390 nM
